Experimental data published in US20210070748A1, “INHIBITORS OF BRUTONS TYROSINE KINASE” (Pharmacyclics LLC, priority 2015, published 2021).

Key:
JAK3 = target: T1, JAK3 (Homo sapiens, UniProt P52333); assay: Inhibition of a panel of kinases, in vitro HotSpot kinase assay: JAK3; assay type: biochemical; conditions: D-compounds panel data; 1 μM ATP; read-out: IC50 JAK3
T1 sequence (P52333 1-1124): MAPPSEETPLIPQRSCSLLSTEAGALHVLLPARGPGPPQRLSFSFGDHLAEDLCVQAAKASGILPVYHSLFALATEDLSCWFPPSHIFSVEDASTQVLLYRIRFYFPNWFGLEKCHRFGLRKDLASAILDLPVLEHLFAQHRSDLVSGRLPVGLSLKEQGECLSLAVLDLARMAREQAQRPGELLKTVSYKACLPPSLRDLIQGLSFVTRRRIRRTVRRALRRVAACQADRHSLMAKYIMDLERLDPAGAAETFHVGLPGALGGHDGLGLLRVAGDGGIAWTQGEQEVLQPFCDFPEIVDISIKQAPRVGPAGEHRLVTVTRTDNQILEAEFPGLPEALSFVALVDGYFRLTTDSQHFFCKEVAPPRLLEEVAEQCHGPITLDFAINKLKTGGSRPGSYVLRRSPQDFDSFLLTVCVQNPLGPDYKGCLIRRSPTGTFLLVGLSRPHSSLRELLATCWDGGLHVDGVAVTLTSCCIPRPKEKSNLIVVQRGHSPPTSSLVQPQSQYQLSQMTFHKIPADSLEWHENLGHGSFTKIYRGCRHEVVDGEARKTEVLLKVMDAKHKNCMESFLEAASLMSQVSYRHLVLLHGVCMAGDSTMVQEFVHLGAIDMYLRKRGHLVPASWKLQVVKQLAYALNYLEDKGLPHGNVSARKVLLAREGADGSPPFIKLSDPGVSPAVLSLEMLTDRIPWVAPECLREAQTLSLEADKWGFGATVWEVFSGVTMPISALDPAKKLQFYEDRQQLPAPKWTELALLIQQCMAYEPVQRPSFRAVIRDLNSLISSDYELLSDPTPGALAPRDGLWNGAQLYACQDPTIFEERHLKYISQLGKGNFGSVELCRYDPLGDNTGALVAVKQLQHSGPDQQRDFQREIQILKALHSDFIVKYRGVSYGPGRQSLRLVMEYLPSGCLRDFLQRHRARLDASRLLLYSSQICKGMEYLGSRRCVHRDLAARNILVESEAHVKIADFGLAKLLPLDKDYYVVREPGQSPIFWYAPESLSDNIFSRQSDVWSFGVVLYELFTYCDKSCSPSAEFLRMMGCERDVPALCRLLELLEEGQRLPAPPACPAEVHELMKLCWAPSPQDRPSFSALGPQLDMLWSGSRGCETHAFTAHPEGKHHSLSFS

TEC = target: T2, TEC (Homo sapiens, UniProt P42680); assay: Inhibition of a panel of kinases, in vitro HotSpot kinase assay: TEC; assay type: biochemical; conditions: D-compounds panel data; 1 μM ATP
T2 sequence (P42680 1-631): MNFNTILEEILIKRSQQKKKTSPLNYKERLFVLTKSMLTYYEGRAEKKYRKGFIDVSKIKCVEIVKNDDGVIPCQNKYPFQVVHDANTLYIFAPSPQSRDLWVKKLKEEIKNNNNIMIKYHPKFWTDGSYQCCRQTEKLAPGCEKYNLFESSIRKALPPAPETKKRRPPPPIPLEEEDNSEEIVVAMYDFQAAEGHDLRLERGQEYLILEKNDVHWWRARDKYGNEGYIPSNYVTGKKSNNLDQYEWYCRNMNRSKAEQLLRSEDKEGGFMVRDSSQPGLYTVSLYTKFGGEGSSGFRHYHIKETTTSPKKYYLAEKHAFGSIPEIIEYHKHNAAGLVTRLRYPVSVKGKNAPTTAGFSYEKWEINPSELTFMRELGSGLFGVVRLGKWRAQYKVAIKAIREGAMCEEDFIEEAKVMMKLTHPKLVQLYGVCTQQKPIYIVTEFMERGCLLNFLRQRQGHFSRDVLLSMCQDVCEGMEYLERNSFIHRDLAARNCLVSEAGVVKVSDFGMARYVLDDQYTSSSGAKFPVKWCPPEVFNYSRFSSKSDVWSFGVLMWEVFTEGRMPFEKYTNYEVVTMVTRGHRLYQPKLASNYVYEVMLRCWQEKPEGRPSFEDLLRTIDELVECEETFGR
Procedure: The degree of inhibition of a panel of kinases is determined using the in vitro HotSpot kinase assay (purified enzymes, ^33P-ATP, an appropriate substrate and 1 μM ATP).

Row | Structure (SMILES) | IC50 (JAK3) [nM] | IC50 (TEC) [nM]
1 | C[C@@H]1[C@H](NC(=O)N(C)C)CCCN1c1cnc(C(N)=O)c(Nc2cc(C3CCOCC3)ns2)n1 [Example D-162, 5-[(2R,3R)-3-[(dimethylcarbamoyl)amino]-2-methylpiperidin-1-yl]-3-{[3-(oxan-4-yl)-1,2-thiazol-5-yl]amino}pyrazine-2-carboxamide] | 1000 to 10000 | ≤ 10
2 | C[C@@H]1[C@H](NC(=O)N(C)C)CCCN1c1cnc(C(N)=O)c(Nc2cc(C3CCN(C4CCCC4)CC3)ns2)n1 [Example D-163, 3-{[3-(1-cyclopentylpiperidin-4-yl)-1,2-thiazol-5-yl]amino}-5-[(2R,3R)-3-[(dimethylcarbamoyl)amino]-2-methylpiperidin-1-yl]pyrazine-2-carboxamide] | 100 to 1000 | 10 to 100
3 | Cc1cc(Nc2nc(N3CCCC(c4ncc(-c5ccccc5)[nH]4)C3)cnc2C(N)=O)sn1 [Example D-164, 3-[(3-methyl-1,2-thiazol-5-yl)amino]-5-[3-(4-phenyl-3H-imidazol-2-yl)piperidin-1-yl]pyrazine-2-carboxamide] | 100 to 1000 | 100 to 1000
4 | CN1CCN(c2ccc(Nc3nc(N4CCC[C@@H](n5ccc6cc(C7CC7)ccc6c5=O)C4)cnc3C(N)=O)cc2)CC1 [Example D-165, 5-[(3R)-3-(6-cyclopropyl-1-oxo-1,2-dihydroisoquinolin-2-yl)piperidin-1-yl]-3-{[4-(4-methylpiperazin-1-yl)phenyl]amino}pyrazine-2-carboxamide] | 1000 to 10000 | 10 to 100
5 | Cc1cc(Nc2nc(N3CCC[C@@H](n4ccc5cc(C6CC6)ccc5c4=O)C3)cnc2C(N)=O)sn1 [Example D-166, 5-[(3R)-3-(6-cyclopropyl-1-oxo-1,2-dihydroisoquinolin-2-yl)piperidin-1-yl]-3-[(3-methyl-1,2-thiazol-5-yl)amino]pyrazine-2-carboxamide] | > 10000 | > 10000
6 | CN1CCN(Cc2ccc(Nc3nc(N4CCC[C@@H](n5ccc6cc(C7CC7)ccc6c5=O)C4)cnc3C(N)=O)cc2)CC1 [Example D-167, 5-[(3R)-3-(6-cyclopropyl-1-oxo-1,2-dihydroisoquinolin-2-yl)piperidin-1-yl]-3-({4-[(4-methylpiperazin-1-yl)methyl]phenyl}amino)pyrazine-2-carboxamide] | 100 to 1000 | 10 to 100
7 | NC(=O)c1ncc(N2CCC[C@@H](n3ccc4cc(C5CC5)ccc4c3=O)C2)nc1Nc1ccc2ncccc2c1 [Example D-168, 5-[(3R)-3-(6-cyclopropyl-1-oxo-1,2-dihydroisoquinolin-2-yl)piperidin-1-yl]-3-[(quinolin-6-yl)amino]pyrazine-2-carboxamide] | > 10000 | 100 to 1000
